Tests used:
[1] = tested on: HepaRG cells (liver cells, hepatocytes); assay: CellTiter-Glo luminescent cell viability (cytotoxicity) assay on hepatocytes; format: cell-based, human; details: for Toxicity to healthy cells versus lung cancer cells: 50 µM, HepaRG vs A-549
Experimental: (§1) The cytotoxicity of prepared benzoxazoles (7a–j) and intermediates (6a–j and 9) were measured by applying the CellTiter-Glo® luminescent cell proliferation assay (G755A, Promega, Madison, WI, USA). This method permits the determination of viable cells numbers in the culture based on quantitation of the ATP present, which denotes the presence of metabolically active cells. In vitro cytotoxicity analysis was overall performed following the protocol as described in “Guidance Document on Using in Vitro Data to Estimate in Vivo Starting Doses for Acute Toxicity Based on Recommendations” [18]. Human A-549 cells are human lung cancer epithelial cells, which were chosen as the tumor model, whereas the HepaRG™ cell line is a classic hepatic cell line that retains many characteristics of primary human hepatocytes. HepaRG™ cells are terminally differentiated.
(§2) Human cell cultures: Hepatocytes (HepaRG^TM cells) were obtained from Life Technologies, and were cultivated in William’s E Medium (Gibco, Life Technologies, Waltham, MA, USA) and supplemented with 1x GlutaMAX™ plus 1x HepaRG^TM General Purpose Medium Supplement in 25-cm^2 or 75-cm^2 flasks (TPP, Trasadingen, Switzerland) at 37 °C and 5% CO2. Lung cancer epithelial cells A-549 were propagated in Epilife Medium (Gibco, Life Technologies; MEPICF) and combined with CaCl2 and 1x-growth-supplement containing penicillin and streptomycin (Gibco, Life Technologies). For sub-culturing, cells were split at a ratio of 1:4 to 1:8. For cryopreservation, cells were frozen in 10% DMSO in liquid nitrogen.
(§3) Human cytotoxicity assay: Human hepatocytes or human lung carcinoma cells were seeded into sterile black clear-bottomed polystyrene Corning® CellBind® 96-well plates (Munich, Germany) at a density of 20,000 cells/well after calculating cell numbers from trypsinized samples in a classical Neubauer Improved hemocytometer (VWR, Munich, Germany). The cells were grown for 24 h at 37 °C in a 5% CO2 atmosphere in Epilife medium (keratinocytes) or William′s E medium (hepatocytes). After a 24-h recovery period, media were removed from the wells by aspiration. The cells were then immediately exposed to the respective test compounds or reference antibiotics (prepared in advance in 100 µL of the same media) for 24 h 37 °C with 5% CO2. The concentration tested ranged from 0.1 µM to 500 µM (0.1 µM, 1 µM, 10 µM, 50 µM, 100 µM, 250 µM, and 500 µM) and was formulated as a 100× concentrated stock each, resulting in a final constant DMSO concentration of 1% per 100-µL sample volume. Test series were each performed in triplicate, and additionally included a vehicle reference (DMSO only) plus another internal control for evaluating overall assay performance. Additionally, cells were visually examined under a light microscope for any morphological abnormalities relative to the untreated cells. Subsequently, cell viability, as an indicator of potential cytotoxicity, was measured by applying the CellTiter-Glo® luminescent cell proliferation assay (G755A, Promega, Madison, WI, USA). This method permits the determination of the number of viable cells in culture based on quantitation of the ATP present, which denotes the presence of metabolically active cells. To this end, 100 µL (equal to the volume of culture medium) of the kit-provided CellTiter-Glo® reagent (reconstituted by transferring the thawed CellTiter-Glo® buffer to the lyophilized enzyme and substrate mixture) was directly added to each well with a repetitive dispensing pipette. The contents were then mixed for 2 min at room temperature on an orbital minishaker (IKA® MS3 digital, Staufen, Germany) at 450 rpm to induce efficient cell lysis, and then further incubated for 10 min at room temperature for stabilization of the resultant luminescent signal. […]

[2] = as above; format: cell-based, human; details: human, Liver cells, hepatocytes (HepaRG), 24 h, vs DMSO vehicle
Experimental: as §1, §2, §3

[3] = Visible solubility / precipitation of test compounds in cell-culture media; format: physicochemical; details: for Solubility at test concentrations: cell-culture media, 0.1-500 µM; for Precipitation in cell-culture media: 50 µM, no conclusion on cytotoxicity possible
Experimental: Since the majority of test compound solutions with concentrations above 50 µM precipitated in cell-culture media, we performed cytotoxicity assays for healthy and cancer cells at 50 µM.

[4] = tested on: A-549 lung carcinoma cells; assay: CellTiter-Glo luminescent cell viability (cytotoxicity) assay on lung cancer cells; format: cell-based, human; details: for viability at 0.1 µM / viability at 1 µM / viability at 10 µM / viability at 50 µM / viability at 100 µM / viability at 250 µM / viability at 500 µM: Homo sapiens, A549, Lung cancer cells (A-549), 24 h, vs DMSO vehicle
Experimental: as §1, §2, §3

| SMILES | melting point [°C] | viability at 24 h, 0.1 µM [2] [%] | viability at 24 h, 1 µM [2] [%] | viability at 24 h, 10 µM [2] [%] | viability at 24 h, 50 µM [2] [%] | viability at 24 h, 100 µM [2] [%] | viability at 24 h, 250 µM [2] [%] | viability at 24 h, 500 µM [2] [%] | viability at 0.1 µM [4] [%] | viability at 1 µM [4] [%] | viability at 10 µM [4] [%] | viability at 50 µM [4] [%] | viability at 100 µM [4] [%] | viability at 250 µM [4] [%] | Precipitation in cell-culture media [3] | further results |
| --- | --- | --- | --- | --- | --- | --- | --- | --- | --- | --- | --- | --- | --- | --- | --- | --- |
| O=[N+]([O-])c1cc(F)c(N2CCN(c3ccc(F)cc3)CC2)cc1O [Compound 6d, 4-Fluoro-5-[4-(4-fluoro-phenyl)-piperazin-1-yl]-2-nitro-phenol] | 151 to 152 | 94 | 87 | 101 | 57 | 62 | 44 | 13 | 103 | 111 | 78 | 58 | 54 | 46 |  | CT50 ([1]; hepatocytes (HepaRG), equal toxicity to both cell lines): ~ 50 µM; Solubility at test concentrations [3]: completely soluble at all concentrations; CT50 ([4]; A-549 lung cancer cells, equal toxicity to both cell lines): ~ 50 µM; viability at 500 µM [4]: 34% |
| Cc1ccc(N2CCN(c3cc4oc(C)nc4cc3F)CC2)cc1 [Compound 7b, 5-Fluoro-2-methyl-6-(4-p-tolyl-piperazin-1-yl)-benzooxazole] | 168 to 170 | 105 | 99 | 91 | 63 | 60 |  |  | 92 | 94 | 92 | 87 | 75 |  |  | Toxicity to healthy cells versus lung cancer cells [1]: more toxic to healthy cells compared with lung cancer cells |
| Cc1nc2cc(F)c(N3CCN(c4ccccc4O)CC3)cc2o1 [Compound 7f, 2-[4-(5-Fluoro-2-methyl-benzooxazol-6-yl)-piperazin-1-yl]-phenol] | 172 to 173 | 106 | 97 | 86 | 59 | 60 | 53 | 54 | 103 | 99 | 91 | 91 | 95 | 83 |  | Solubility at test concentrations [3]: completely soluble at all concentrations; viability at 500 µM [4]: 63% |
| Cc1nc2cc(F)c(N3CCN(c4ccc(Cl)c(Cl)c4)CC3)cc2o1 [Compound 7j, 6-[4-(3,4-Dichloro-phenyl)-piperazin-1-yl]-5-fluoro-2-methyl-benzooxazole] | 147 to 148 | 100 | 90 | 85 | 65 | 27 | 7 | 7 | 98 | 94 | 81 | 70 | 47 | 28 | precipitation problem | Toxicity to healthy cells versus lung cancer cells [1]: more toxic to healthy cells compared with lung cancer cells |
| COc1cccc2c1C(=O)c1c(O)c3c(c(O)c1C2=O)C[C@@](O)(C(=O)CO)C[C@@H]3O[C@H]1C[C@H](N)[C@H](O)[C@H](C)O1 [doxorubicine, reference compound] |  |  |  |  |  |  |  |  |  |  |  |  |  |  |  | IC50 ([1]; Homo sapiens, HepaRG cells, standard): 5.1 µM |

Now from value to compound, other results behind:

| melting point [°C] | SMILES | viability at 24 h, 0.1 µM [2] [%] | viability at 24 h, 1 µM [2] [%] | viability at 24 h, 10 µM [2] [%] | viability at 24 h, 50 µM [2] [%] | viability at 24 h, 100 µM [2] [%] | viability at 24 h, 250 µM [2] [%] | viability at 24 h, 500 µM [2] [%] | viability at 0.1 µM [4] [%] | viability at 1 µM [4] [%] | viability at 10 µM [4] [%] | viability at 50 µM [4] [%] | viability at 100 µM [4] [%] | viability at 250 µM [4] [%] | Precipitation in cell-culture media [3] | further results |
| --- | --- | --- | --- | --- | --- | --- | --- | --- | --- | --- | --- | --- | --- | --- | --- | --- |
| 157 to 158 | Cc1nc2cc(F)c(N3CCN(c4ccccc4F)CC3)cc2o1 [Compound 7g, 5-Fluoro-6-(4-(2-fluorophenyl)-piperazin-1-yl)-2-methylbenzo[d]oxazole] | 96 | 106 | 87 |  |  |  |  | 96 | 92 | 92 | 73 | 63 |  | precipitation problem |  |
| 211 to 213 | Cc1nc2cc(F)c(N3CCN(c4cccc(O)c4)CC3)cc2o1 [Compound 7h, 3-[4-(5-Fluoro-2-methyl-benzooxazol-6-yl)-piperazin-1-yl]-phenol] | 100 | 102 | 99 |  |  |  |  | 100 | 93 | 97 | 95 | 90 |  | precipitation problem |  |
| 124 to 125 | COc1cccc(N2CCN(c3cc4oc(C)nc4cc3F)CC2)c1 [Compound 7i, 5-Fluoro-6-[4-(3-methoxy-phenyl)-piperazin-1-yl]-2-methyl-benzooxazole] | 100 | 102 | 91 |  |  |  |  | 105 | 102 | 88 | 76 | 75 |  | precipitation problem |  |
